Data: patent US20240132484A1, “BROAD SPECTRUM ANTIVIRAL COMPOUNDS TARGETING THE SKI COMPLEX” (priority 2020, published 2024)
Where “and” joins values, the source holds several entries; their conditions need not be identical. Identical values can stand only once. Like-named read-outs stand apart in the source and are kept apart here.

Tests used:
SARS2 = assay type: cell-based, SARS-CoV-2; conditions: for Infection Data: Percentage Infection Relative to Appropriate DMSO Control: avg background subtraction, replicate wells; for Infection Data: Average, Mean: average of Exp 1-3 (SMW475, SMW477, SMW478), n 9; for Percentage Inhibition Average 1 μM / Screening data (Relative infection to DMSO controls) Average 1 μM: SARS2, 1 μM; for Screening data (Relative infection to DMSO controls) Average 1 μM / Screening data (Relative infection to DMSO controls) Average 5 μM / Screening data (Relative infection to DMSO controls) Average 10 μM / Screening data (Relative infection to DMSO controls) Average 25 μM / Screening data (Relative infection to DMSO controls) Average 50 μM / Average (relative infection to DMSO over the 5 tested concentrations): 100=DMSO control; for Percentage Inhibition Average 5 μM / Screening data (Relative infection to DMSO controls) Average 5 μM: SARS2, 5 μM; for Percentage Inhibition Average 10 μM / Screening data (Relative infection to DMSO controls) Average 10 μM: SARS2, 10 μM; for Percentage Inhibition Average 25 μM / Screening data (Relative infection to DMSO controls) Average 25 μM: SARS2, 25 μM; for Percentage Inhibition Average 50 μM / Screening data (Relative infection to DMSO controls) Average 50 μM: SARS2, 50 μM; for Average (relative infection to DMSO over the 5 tested concentrations): SARS2, average over 1 to 50 uM; for Percentage Infection Relative to Appropriate DMSO Control with Avg Background Subtraction: Nunc Celigo plates; for Infection Data, Average, Mean: average of Exp 1-2 (SMW491, SMW492)
cells (nuclei count) = conditions: for Toxicity Data: Average, Mean: average of Exp 1-3 (SMW475, SMW477, SMW478), n 9; for Relative cell count to DMSO controls, Average 1 μM / Relative cell count to DMSO controls, Average 5 μM / Relative cell count to DMSO controls, Average 10 μM / Relative cell count to DMSO controls, Average 25 μM / Relative cell count to DMSO controls, Average 50 μM: toxicity data, 100=DMSO control; for Relative cell count to DMSO controls, Average (for correlation analysis): average value over the 5 tested concentrations (1 to 50 uM); for Toxicity Data, Average, Mean percentage relative to DMSO control: Average of Exp 1 (SMW491) and Exp 2 (SMW492)

## CN(C)CCN(Cc1ccsc1)Cc1cccc(-c2ccsc2)c1 [SILCS20]
SARS2; 1 uM, Exp 1 (SMW475)
  Infection Data: Percentage Infection Relative to Appropriate DMSO Control: 104.96% and 108.84% and 98.09%
SARS2; 1 uM, Exp 2 (SMW477)
  Infection Data: Percentage Infection Relative to Appropriate DMSO Control: 151.25% and 151.34% and 136.14%
SARS2; 1 uM, Exp 3 (SMW478)
  Infection Data: Percentage Infection Relative to Appropriate DMSO Control: 92.92% and 94.78% and 98.52%
SARS2; 1 uM
  Infection Data: Average, Mean: 115.20%
SARS2; 5 uM, Exp 1 (SMW475)
  Infection Data: Percentage Infection Relative to Appropriate DMSO Control: 71.77% and 48.90% and 69.38%
SARS2; 5 uM, Exp 2 (SMW477)
  Infection Data: Percentage Infection Relative to Appropriate DMSO Control: 133.79% and 116.24% and 114.33%
SARS2; 5 uM, Exp 3 (SMW478)
  Infection Data: Percentage Infection Relative to Appropriate DMSO Control: 62.84% and 53.65% and 64.98%
SARS2; 5 uM
  Infection Data: Average, Mean: 81.76%
SARS2; 10 uM, Exp 1 (SMW475)
  Infection Data: Percentage Infection Relative to Appropriate DMSO Control: 45.14% and 27.86% and 26.38%
SARS2; 10 uM, Exp 2 (SMW477)
  Infection Data: Percentage Infection Relative to Appropriate DMSO Control: 76.01% and 46.79% and 30.46%
SARS2; 10 uM, Exp 3 (SMW478)
  Infection Data: Percentage Infection Relative to Appropriate DMSO Control: 30.07% and 13.27% and 56.68%
SARS2; 10 uM
  Infection Data: Average, Mean: 39.18%
SARS2; 25 uM, Exp 1 (SMW475)
  Infection Data: Percentage Infection Relative to Appropriate DMSO Control: 13.25% and 8.47% and 6.46%
SARS2; 25 uM, Exp 2 (SMW477)
  Infection Data: Percentage Infection Relative to Appropriate DMSO Control: 9.75% and 7.72% and 7.01%
SARS2; 25 uM, Exp 3 (SMW478)
  Infection Data: Percentage Infection Relative to Appropriate DMSO Control: 6.76% and 9.52% and 8.68%
SARS2; 25 uM
  Infection Data: Average, Mean: 8.63%
SARS2; 50 uM, Exp 1 (SMW475)
  Infection Data: Percentage Infection Relative to Appropriate DMSO Control: −0.47% and 0.47% and 1.44%
SARS2; 50 uM, Exp 2 (SMW477)
  Infection Data: Percentage Infection Relative to Appropriate DMSO Control: −0.57% and −0.19% and −1.43%
SARS2; 50 uM, Exp 3 (SMW478)
  Infection Data: Percentage Infection Relative to Appropriate DMSO Control: 125.56% and 159.57% and 149.88%
SARS2; 50 uM
  Infection Data: Average, Mean: 48.15%
SARS2
  Percentage Inhibition Average 1 μM: −15.20%
  Screening data (Relative infection to DMSO controls) Average 1 μM: 115.20
  Percentage Inhibition Average 5 μM: 18.24%
  Screening data (Relative infection to DMSO controls) Average 5 μM: 81.76
  Percentage Inhibition Average 10 μM: 60.82%
  Screening data (Relative infection to DMSO controls) Average 10 μM: 39.18
  Percentage Inhibition Average 25 μM: 91.37%
  Screening data (Relative infection to DMSO controls) Average 25 μM: 8.63
  Percentage Inhibition Average 50 μM: 51.85%
  Screening data (Relative infection to DMSO controls) Average 50 μM: 48.15
  Average (relative infection to DMSO over the 5 tested concentrations): 58.58
Cells (nuclei count); 1 uM
  Toxicity Data: Average, Mean: 96.85%
Cells (nuclei count)
  Relative cell count to DMSO controls, Average 1 μM: 96.85
  Relative cell count to DMSO controls, Average 5 μM: 116.85
  Relative cell count to DMSO controls, Average 10 μM: 138.88
  Relative cell count to DMSO controls, Average 25 μM: 78.06
  Relative cell count to DMSO controls, Average 50 μM: 7.37
  Relative cell count to DMSO controls, Average (for correlation analysis): 87.60
Cells (nuclei count); 5 uM
  Toxicity Data: Average, Mean: 116.85%
Cells (nuclei count); 10 uM
  Toxicity Data: Average, Mean: 138.88%
Cells (nuclei count); 25 uM
  Toxicity Data: Average, Mean: 78.06%
Cells (nuclei count); 50 uM
  Toxicity Data: Average, Mean: 7.37%

## CN(C)CCCN(Cc1cccs1)C(=O)c1cccs1 [SILCS40]
SARS2
  SARS2 antiviral activity: inactive
  Percentage Inhibition Average 1 μM: −17.72%
  Screening data (Relative infection to DMSO controls) Average 1 μM: 117.72
  Percentage Inhibition Average 5 μM: 1.14%
  Screening data (Relative infection to DMSO controls) Average 5 μM: 98.86
  Percentage Inhibition Average 10 μM: −15.37%
  Screening data (Relative infection to DMSO controls) Average 10 μM: 115.37
  Percentage Inhibition Average 25 μM: −41.44%
  Screening data (Relative infection to DMSO controls) Average 25 μM: 141.44
  Percentage Inhibition Average 50 μM: 47.95%
  Screening data (Relative infection to DMSO controls) Average 50 μM: 52.05
  Average (relative infection to DMSO over the 5 tested concentrations): 105.09
SARS2; Exp 1 (SMW491), 1 uM
  Percentage Infection Relative to Appropriate DMSO Control with Avg Background Subtraction: 161.72% and 144.95%
SARS2; Exp 1 (SMW491), 5 uM
  Percentage Infection Relative to Appropriate DMSO Control with Avg Background Subtraction: 118.41% and 120.39%
SARS2; Exp 1 (SMW491), 10 uM
  Percentage Infection Relative to Appropriate DMSO Control with Avg Background Subtraction: 125.55% and 160.68%
SARS2; Exp 1 (SMW491), 25 uM
  Percentage Infection Relative to Appropriate DMSO Control with Avg Background Subtraction: 122.15% and 145.90%
SARS2; Exp 1 (SMW491), 50 uM
  Percentage Infection Relative to Appropriate DMSO Control with Avg Background Subtraction: 46.53% and 56.51%
SARS2; Exp 2 (SMW492), 1 uM
  Percentage Infection Relative to Appropriate DMSO Control with Avg Background Subtraction: 86.70% and 77.51%
SARS2; Exp 2 (SMW492), 5 uM
  Percentage Infection Relative to Appropriate DMSO Control with Avg Background Subtraction: 88.04% and 68.60%
SARS2; Exp 2 (SMW492), 10 uM
  Percentage Infection Relative to Appropriate DMSO Control with Avg Background Subtraction: 101.31% and 73.96%
SARS2; Exp 2 (SMW492), 25 uM
  Percentage Infection Relative to Appropriate DMSO Control with Avg Background Subtraction: 185.38% and 112.33%
SARS2; Exp 2 (SMW492), 50 uM
  Percentage Infection Relative to Appropriate DMSO Control with Avg Background Subtraction: 61.71% and 43.46%
SARS2; n 4, 1 uM
  Infection Data, Average, Mean: 117.72%
SARS2; n 4, 5 uM
  Infection Data, Average, Mean: 98.86%
SARS2; n 4, 10 uM
  Infection Data, Average, Mean: 115.37%
SARS2; n 4, 25 uM
  Infection Data, Average, Mean: 141.44%
SARS2; n 4, 50 uM
  Infection Data, Average, Mean: 52.05%
Cells (nuclei count)
  Relative cell count to DMSO controls, Average 1 μM: 86.49
  Relative cell count to DMSO controls, Average 5 μM: 96.33
  Relative cell count to DMSO controls, Average 10 μM: 92.49
  Relative cell count to DMSO controls, Average 25 μM: 83.93
  Relative cell count to DMSO controls, Average 50 μM: 117.52
  Relative cell count to DMSO controls, Average (for correlation analysis): 95.35
Cells (nuclei count); n=4, 1 uM
  Toxicity Data, Average, Mean percentage relative to DMSO control: 86.49%
Cells (nuclei count); n=4, 5 uM
  Toxicity Data, Average, Mean percentage relative to DMSO control: 96.33%
Cells (nuclei count); n=4, 10 uM
  Toxicity Data, Average, Mean percentage relative to DMSO control: 92.49%
Cells (nuclei count); n=4, 25 uM
  Toxicity Data, Average, Mean percentage relative to DMSO control: 83.93%
Cells (nuclei count); n=4, 50 uM
  Toxicity Data, Average, Mean percentage relative to DMSO control: 117.52%

## COc1ccc(-c2[nH]ncc2C(=O)NC2CCCCCC2)cc1OC [SILCS60]
SARS2
  Percentage Inhibition Average 1 μM: 20.62%
  Screening data (Relative infection to DMSO controls) Average 1 μM: 79.38
  Percentage Inhibition Average 5 μM: 26.35%
  Screening data (Relative infection to DMSO controls) Average 5 μM: 73.65
  Percentage Inhibition Average 10 μM: 26.47%
  Screening data (Relative infection to DMSO controls) Average 10 μM: 73.53
  Percentage Inhibition Average 25 μM: 1.46%
  Screening data (Relative infection to DMSO controls) Average 25 μM: 98.54
  Percentage Inhibition Average 50 μM: −22.52%
  Screening data (Relative infection to DMSO controls) Average 50 μM: 122.52
  Average (relative infection to DMSO over the 5 tested concentrations): 89.52
Cells (nuclei count)
  Relative cell count to DMSO controls, Average 1 μM: 111.59
  Relative cell count to DMSO controls, Average 5 μM: 110.17
  Relative cell count to DMSO controls, Average 10 μM: 109.31
  Relative cell count to DMSO controls, Average 25 μM: 96.61
  Relative cell count to DMSO controls, Average 50 μM: 85.19
  Relative cell count to DMSO controls, Average (for correlation analysis): 102.57
